Source: article PMC8348200, “Selective Antifungal Activity and Fungal Biofilm Inhibition of Tryptophan Center Symmetrical Short Peptide” (International Journal of Molecular Sciences, 2021)
Converted amounts (≈) assume the structure as drawn. Where two headings read alike, the source gives them in different places. Residues, ends and D or L forms follow the SMILES beside them. No end group written: not given here.

Key:
S. thermophilus YM-C = assay: microbe, parasite or virus in culture; assay type: cell-based, Streptococcus thermophiles; conditions: 24 h; read-out: MICs, S. thermophilus YM-C
Description: (§1) The peptide antimicrobial activity was determined according to the Clinical and Laboratory Standards Institute method, with modifications. Bacteria concentration was measured by ultraviolet spectrophotometer, and fungi concentration was confirmed by McMillan’s turbidimetric method, which compared the fungi solution with the standard McFarland tube in front of the horizontal line on the paper with the naked eye. Because the light has different refract in different liquids. The standard solution is composed of sulfuric acid and barium chloride, which is equivalent to 1*10^8 CFU fungi. After cultivation, the growth of fungi and bacteria was measured by TECAN automatic enzyme label instrument. Briefly, bacterial cells were cultured in MHB until logarithmic phase, yeast colonies cultured in Yeast Peptone Dextrose Agar (YPDA) were picked and diluted in RPMI 1640 growth medium buffered with morpholine propane sulfonic acid (MOPS), and then 50 μL of bacterial or fungi cell solution (0.5–1 × 10^4 CFU/mL) was added to each well of sterile 96-well plates. Each well contained 50 μL of AMPs dissolved in BSA; the final concentrations of the peptides ranged from 0.5 to 128 μM. The lowest concentration of peptide with no microbial growth being observed were measured after incubation at 37 °C for 24 h for bacteria or at 28 °C for 48 h for fungi. Broth with microbial cells and un-inoculated broth were used as positive control and negative controls, respectively.

S. aureus 29213 = assay: microbe, parasite or virus in culture; assay type: cell-based, Staphylococcus aureus; conditions: 29213, 24 h; read-out: MICs, S. aureus 29213
Description: as §1

S. aureus 25923 = assay: microbe, parasite or virus in culture; assay type: cell-based, Staphylococcus aureus; conditions: 25923, 24 h; read-out: MICs, S. aureus 25923
Description: as §1

C. albicans cgmcc 2.2086 = assay: microbe, parasite or virus in culture; assay type: cell-based, Candida albicans; conditions: cgmcc 2.2086, 48 h; read-out: MICs, C. albicans cgmcc 2.2086
Description: as §1

C. albicans SP3937 = assay: microbe, parasite or virus in culture; assay type: cell-based, Candida albicans; conditions: clinical isolate; RPMI 1640 buffered with MOPS, 28 °C 48 h, 0.5-128 μM; read-out: MICs, C. albicans SP3937
Description: as §1

C. albicans SP3903 = assay: microbe, parasite or virus in culture; assay type: cell-based, Candida albicans; conditions: clinical isolate; RPMI 1640 buffered with MOPS, 28 °C 48 h, 0.5-128 μM; read-out: MICs, C. albicans SP3903
Description: as §1

C. albicans SP3902 = assay: microbe, parasite or virus in culture; assay type: cell-based, Candida albicans; conditions: clinical isolate; RPMI 1640 buffered with MOPS, 28 °C 48 h, 0.5-128 μM; read-out: MICs, C. albicans SP3902
Description: as §1

[1] = system: C. albicans Isolated from Alveolar Fluid; assay: microbe, parasite or virus in culture; assay type: cell-based, Candida albicans; conditions: RPMI 1640 buffered with MOPS, 28 °C 48 h, 0.5-128 μM; read-out: MICs, C. albicans Isolated from Alveolar Fluid
Description: as §1

[2] = system: Fluconazole-resistant C. albicans 56214; assay: microbe, parasite or virus in culture; conditions: fluconazole-resistant strain; RPMI 1640 buffered with MOPS, 28 °C 48 h, 0.5-128 μM
Description: as §1, with “Bacteria concentration was measured by ultraviolet spectrophotometer, and fungi concentration was confirmed by McMillan’s turbidimetric method, which compared the fungi solution with the standard McFarland tube in front of the horizontal line on the paper with the naked eye.” left out, “The lowest concentration of peptide with no microbial growth being observed were measured after incubation at 37 °C for 24 h for bacteria or at 28 °C for 48 h for fungi.” left out

E. coli UB1005 = assay: microbe, parasite or virus in culture; assay type: cell-based, Escherichia coli; conditions: UB1005, 24 h; read-out: MICs, E. coli UB1005
Description: as §1

E. coli 25922 = assay: microbe, parasite or virus in culture; assay type: cell-based, Escherichia coli; conditions: 25922, 24 h; read-out: MICs, E. coli 25922
Description: as §1

L. rhamnosus 1.0911 = assay: microbe, parasite or virus in culture; assay type: cell-based, Lactobacillus rhamnosus; conditions: 24 h; read-out: MICs, L. rhamnosus 1.0911
Description: as §1

L. rhamnosus 1.0385 = assay: microbe, parasite or virus in culture; assay type: cell-based, Lactobacillus rhamnosus; conditions: 24 h; read-out: MICs, L. rhamnosus 1.0385
Description: as §1

[3] = system: C. tropicalis cgmcc 2.1975; assay: microbe, parasite or virus in culture; assay type: cell-based; conditions: cgmcc 2.1975, 48 h; read-out: MICs, C. tropicalis cgmcc 2.1975
Description: as §1

[4] = system: C. parapsilosis cgmcc 2.3989; assay: microbe, parasite or virus in culture; assay type: cell-based; conditions: cgmcc 2.3989, 48 h; read-out: MICs, C. parapsilosis cgmcc 2.3989
Description: as §1

L. plantarum 7469 = assay: microbe, parasite or virus in culture; assay type: cell-based; conditions: 24 h; read-out: MICs, L. plantarum 7469
Description: as §1

human red blood cells = assay: Hemolysis assay; assay type: cell-based; conditions: at the highest tested concentration; fresh human erythrocytes
Description: The cytotoxicity of the peptides was determined with three cell types, including the Pig kidney cells, HEK 293T cells and fresh, healthy human red blood cells (donated by Zhihua Wang) via the MTT dye reduction assay and hemolysis assay.

C.albicans cgmcc 2.2086 = assay: microbe, parasite or virus in culture; assay type: cell-based, Candida albicans; conditions: cgmcc 2.2086, 24 h
Description: as §1, with “The lowest concentration of peptide with no microbial growth being observed were measured after incubation at 37 °C for 24 h for bacteria or at 28 °C for 48 h for fungi.” left out
The salt and acid sensitivities of the peptides were measured using with modified method to test MIC values; tested peptides were incubated in the presence of different final concentrations of physiological salts. The subsequent steps were consistent with the MIC determination protocol.

| Compound | MIC (S. thermophilus YM-C) [µM] | MIC (S. aureus 29213) [µM] | MIC (S. aureus 25923) [µM] | MIC (C. albicans cgmcc 2.2086) [µM] | MIC (C. albicans SP3937) [µM] | MIC (C. albicans SP3903) [µM] | MIC (C. albicans SP3902) [µM] | MIC [1] [µM] | MICs, C. albicans 56214 [2] [µM] | MIC (E. coli UB1005) [µM] | MIC (E. coli 25922) [µM] | MIC (L. rhamnosus 1.0911) [µM] | MIC (L. rhamnosus 1.0385) [µM] | MIC [3] [µM] | MIC [4] [µM] | MIC (L. plantarum 7469) [µM] | other results |
| --- | --- | --- | --- | --- | --- | --- | --- | --- | --- | --- | --- | --- | --- | --- | --- | --- | --- |
| CC(C)C[C@H](NC(=O)[C@H](CS)NC(=O)[C@H](CC(C)C)NC(=O)[C@H](Cc1c[nH]c2ccccc12)NC(=O)[C@H](CC(C)C)NC(=O)[C@H](CS)NC(=O)[C@H](CC(C)C)NC(=O)[C@H](CCCNC(=N)N)NC(=O)[C@@H](N)CCCNC(=N)N)C(=O)N[C@@H](CCCNC(=N)N)C(=O)N[C@@H](CCCNC(=N)N)C(N)=O [Peptide P3] (H-RRLCLWLCLRR-NH2; N-terminus assumed) | >128 | 8 (≈ 11.9 µg/mL) | 8 (≈ 11.9 µg/mL) | 8 (≈ 11.9 µg/mL) | 16 (≈ 23.8 µg/mL) | 16 (≈ 23.8 µg/mL) | 16 (≈ 23.8 µg/mL) | 16 (≈ 23.8 µg/mL) | 16 | 2 (≈ 2.97 µg/mL) | 4 (≈ 5.95 µg/mL) | 128 (≈ 190 µg/mL) | >128 | 4 (≈ 5.95 µg/mL) | 16 (≈ 23.8 µg/mL) | 128 (≈ 190 µg/mL) |  |
| RRFSFWFSFRR-NH2 [Peptide P19] | >128 | 128 | >128 | 2 | 4 | 2 | 4 | 4 | 4 | 128 | 128 | >128 | >128 | 2 | 2 | >128 | hemolysis (human red blood cells): less than 5%; MIC (C.albicans cgmcc 2.2086; read-out: MIC in acid environment, pH = 6): 4 µM; MIC (C.albicans cgmcc 2.2086; read-out: MIC in the presence of FeCl3): 4 µM; MIC (C.albicans cgmcc 2.2086; read-out: MIC in the presence of KCl): 4 µM; MIC (C.albicans cgmcc 2.2086; read-out: MIC in the presence of MgCl2): 4 µM; MIC (C.albicans cgmcc 2.2086; read-out: MIC in the presence of NH4Cl): 4 µM; MIC (C.albicans cgmcc 2.2086; read-out: MIC in the presence of NaCl): 32 µM; MIC (C.albicans cgmcc 2.2086; read-out: MIC in the presence of ZnCl2): 4 µM; MIC (C.albicans cgmcc 2.2086; read-out: MIC, Control): 2 µM |
| RRISIWISIRR-NH2 [Peptide P17] | >128 | 128 | 128 | 4 | 4 | 2 | 4 | 8 | 4 | 16 | 128 | 32 | 8 | 1 | 1 | >128 |  |
| RRLALWLALRR-NH2 [Peptide P1] | 128 | 8 | 8 | 8 | 16 | 16 | 32 | 8 | 16 | 2 | 4 | 64 | 8 | 2 | 8 | >128 |  |
| RRLSLWLSLRR-NH2 [Peptide P2] | >128 | 4 | 16 | 4 | 8 | 16 | 16 | 8 | 8 | 2 | 4 | 8 | 8 | 2 | 8 | 128 |  |
